Here are results for 12 molecules from patent US7009052B2, “Sulfonamide derivatives” (Warner Lambert Company LLC, priority 2003, dated 2006).

What is called IC50 is the concentration that inhibits the measured activity by half. Low readings indicate greater potency in that assay, high ones weaker potency in that assay.

The experiment addresses T1, androgen receptor (Homo sapiens, UniProt P10275).
T1 sequence (P10275 1-920 Q868H): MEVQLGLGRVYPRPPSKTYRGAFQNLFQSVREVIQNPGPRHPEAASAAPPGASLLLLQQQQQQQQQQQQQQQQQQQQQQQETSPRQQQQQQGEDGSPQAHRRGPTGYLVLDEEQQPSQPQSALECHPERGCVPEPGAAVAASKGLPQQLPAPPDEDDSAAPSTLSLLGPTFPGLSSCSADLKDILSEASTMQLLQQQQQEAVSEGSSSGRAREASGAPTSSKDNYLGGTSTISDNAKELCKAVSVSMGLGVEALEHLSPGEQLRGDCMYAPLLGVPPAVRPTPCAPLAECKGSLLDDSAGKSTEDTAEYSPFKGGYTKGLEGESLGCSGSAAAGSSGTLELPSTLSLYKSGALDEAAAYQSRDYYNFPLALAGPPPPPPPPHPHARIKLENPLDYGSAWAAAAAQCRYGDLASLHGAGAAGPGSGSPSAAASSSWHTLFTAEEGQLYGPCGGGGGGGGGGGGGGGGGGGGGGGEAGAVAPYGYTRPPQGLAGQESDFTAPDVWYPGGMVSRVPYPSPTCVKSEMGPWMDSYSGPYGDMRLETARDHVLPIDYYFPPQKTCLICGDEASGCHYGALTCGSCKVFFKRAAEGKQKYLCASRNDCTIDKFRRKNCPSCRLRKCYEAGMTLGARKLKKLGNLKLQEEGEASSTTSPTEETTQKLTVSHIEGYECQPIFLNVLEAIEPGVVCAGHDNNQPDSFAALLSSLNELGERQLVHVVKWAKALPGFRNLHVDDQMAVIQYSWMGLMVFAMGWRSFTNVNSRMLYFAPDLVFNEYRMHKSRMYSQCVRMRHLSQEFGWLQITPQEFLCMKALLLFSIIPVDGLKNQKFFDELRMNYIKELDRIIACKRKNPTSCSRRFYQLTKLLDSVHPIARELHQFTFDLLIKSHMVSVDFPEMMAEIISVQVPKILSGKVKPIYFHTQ
Put plainly: AR Antagonist Cell Assay (MMTV-luciferase reporter, DHT-induced). The class given is cell-based. To be noted: MDA-MB453-MMTV clone 54-19 cells, 100 pM DHT, 17 hr. In a few lines:
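Stably transfected MDA-MB453 cells carrying an ARE-containing MMTV promoter–firefly luciferase reporter, pretreated 30 min with compound at 10 uM or 1 uM in 1% charcoal-treated serum medium. Then stimulated with 100 pM DHT for 17 hr at 37° C. and luminescence read; expressed as % inhibition of DHT-induced signal.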
`CCCCN(CC)S(=O)(=O)c1ccc2c(c1)c(C(F)(F)F)cc(=O)n2C` [Example 4, 1-Methyl-2-oxo-4-trifluoromethyl-1,2-dihydroquinoline-6-sulfonicacid butylethylamide] registered a half-maximal inhibitory concentration (IC50) of 10600 nM.

For the molecule `Cn1c(=O)cc(C(F)(F)F)c2cc(S(=O)(=O)NCCc3c[nH]c4ccccc34)ccc21` [Example 60, 1-Methyl-2-oxo-4-trifluoromethyl-1,2-dihydroquinoline-6-sulfonicacid [2-(1H-indol-3-yl)ethyl]amide], the 50% inhibitory concentration (IC50) stood at 6330 nM.

Regarding `Cc1cccc(NS(=O)(=O)c2ccc3c(c2)c(C(F)(F)F)cc(=O)n3C)c1` [Example 13, 1-Methyl-2-oxo-4-trifluoromethyl-1,2-dihydroquinoline-6-sulfonicacid m-tolylamide], the half-maximal inhibitory concentration (IC50) amounted to 760 nM.

Consider `Cn1c(=O)cc(C(F)(F)F)c2cc(S(=O)(=O)NCc3cc(Cl)ccc3F)ccc21` [Example 59, 1-Methyl-2-oxo-4-trifluoromethyl-1,2-dihydroquinoline-6-sulfonicacid 5-chloro-2-fluorobenzylamide], for which the IC50 is more than 10000 nM.

`O=c1cc(C(F)(F)F)c2cc(S(=O)(=O)NCCc3c[nH]c4ccccc34)ccc2[nH]1` [Example 147, 2-Oxo-4-trifluoromethyl-1,2-dihydroquinoline-6-sulfonic acid[2-(1H-indol-3-yl)ethyl]amide] yielded an IC50 of 260 nM.

The molecule `O=c1cc(C(F)(F)F)c2cc(S(=O)(=O)N(CCO)Cc3ccccc3)ccc2[nH]1` [Example 71, 2-Oxo-4-trifluoromethyl-1,2-dihydroquinoline-6-sulfonic acidbenzyl(2-hydroxyethyl)amide] came in with an IC50 of 1310 nM.

In turn, `CC(C)Oc1cccc(NS(=O)(=O)c2ccc3[nH]c(=O)cc(C(F)(F)F)c3c2)c1` [Example 105, 2-Oxo-4-trifluoromethyl-1,2-dihydroquinoline-6-sulfonic acid(3-isopropoxyphenyl)amide] displayed a 50% inhibitory concentration (IC50) of 450 nM.

Take `O=c1cc(C(F)(F)F)c2cc(S(=O)(=O)NCC(c3ccccc3)c3ccccc3)ccc2[nH]1` [Example 159, 2-Oxo-4-trifluoromethyl-1,2-dihydroquinoline-6-sulfonic acid(2,2-diphenylethyl)amide]: the IC50 is 1560 nM. Compared with the last molecule, the IC50 is about 3.5-fold higher.

`Cn1c(=O)cc(C(F)(F)F)c2cc(S(=O)(=O)NCc3ccccc3C(F)(F)F)ccc21` [Example 62, 1-Methyl-2-oxo-4-trifluoromethyl-1,2-dihydroquinoline-6-sulfonicacid 2-trifluoromethyl-benzylamide] registered an IC50 of 3920 nM.

As to `O=c1cc(C(F)(F)F)c2cc(S(=O)(=O)NCCc3c[nH]c4ccccc34)ccc2o1` [Example 67, 2-Oxo-4-trifluoromethyl-2H-chromene-6-sulfonic acid [2-(1H-indol-3-yl)ethyl]amide], the half-maximal inhibitory concentration (IC50) is more than 10000 nM.

The molecule `O=c1cc(C(F)(F)F)c2cc(S(=O)(=O)NCCc3ccccc3)ccc2[nH]1` [Example 128, 2-Oxo-4-trifluoromethyl-1,2-dihydroquinoline-6-sulfonic acidphenethylamide] displayed an IC50 of 2650 nM.

As for `Cc1cc(NS(=O)(=O)c2ccc3[nH]c(=O)cc(C(F)(F)F)c3c2)n(C)n1` [Example 85, 2-Oxo-4-trifluoromethyl-1,2-dihydroquinoline-6-sulfonic acid(2,5-dimethyl-2H-pyrazol-3-yl)amide], the half-maximal inhibitory concentration (IC50) is more than 10000 nM.
